Experimental data taken from ChEMBL document CHEMBL1649074, “Aurora kinase inhibitors based on the imidazo[1,2-a]pyrazine core: fluorine and deuterium incorporation improve oral absorption and exposure” (J Med Chem, 2011).

Columns and labels:
[1] = biological target: T1, Aurora kinase A (Homo sapiens, UniProt O14965); experiment: Inhibition of Aurora A
T1 sequence (O14965 whole entry): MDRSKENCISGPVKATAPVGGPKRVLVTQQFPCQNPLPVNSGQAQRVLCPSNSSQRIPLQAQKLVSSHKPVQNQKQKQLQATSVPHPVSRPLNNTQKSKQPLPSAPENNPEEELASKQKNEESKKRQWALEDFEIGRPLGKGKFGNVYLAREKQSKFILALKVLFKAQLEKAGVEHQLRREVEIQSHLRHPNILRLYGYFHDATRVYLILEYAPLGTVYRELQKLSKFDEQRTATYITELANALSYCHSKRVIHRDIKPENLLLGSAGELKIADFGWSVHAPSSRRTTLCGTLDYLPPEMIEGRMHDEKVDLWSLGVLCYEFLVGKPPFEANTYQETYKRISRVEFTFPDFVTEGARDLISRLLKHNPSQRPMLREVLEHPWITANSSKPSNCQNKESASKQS

[2] = AUC (0 to 6 hrs) in rat at 10 mg/kg, po; assay type: ADME, organism-based; parameters: time < 6 hr, dose 10 mg/kg, route oral; conditions: plasma
[3] = biological target: T2, Aurora kinase B (Homo sapiens, UniProt Q96GD4); experiment: Inhibition of Aurora B
T2 sequence (Q96GD4 whole entry): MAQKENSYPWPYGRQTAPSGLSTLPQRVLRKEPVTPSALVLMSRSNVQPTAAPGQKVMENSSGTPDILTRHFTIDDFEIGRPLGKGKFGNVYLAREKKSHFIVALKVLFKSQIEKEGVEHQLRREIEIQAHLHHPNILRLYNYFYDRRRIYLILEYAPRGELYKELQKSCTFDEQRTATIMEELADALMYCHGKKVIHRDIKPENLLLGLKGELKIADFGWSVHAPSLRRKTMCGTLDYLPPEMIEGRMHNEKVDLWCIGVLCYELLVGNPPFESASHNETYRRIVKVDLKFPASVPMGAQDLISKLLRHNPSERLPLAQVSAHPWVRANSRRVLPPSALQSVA

[4] = biological target: T2, Aurora kinase B; experiment: Inhibition of Aurora B in human HCT116 cells assessed as inhibition of histone H3 phosphorylation by immunofluorescence assay; assay type: cell-based, HCT-116
[5] = Plasma clearance in rat; assay type: ADME, organism-based
[6] = Oral AUC in cynomolgus monkey at 10 mg/kg, po; assay type: ADME, organism-based, Macaca fascicularis; parameters: dose 10 mg/kg, route oral; conditions: in vivo
[7] = Oral bioavailability in CD1 mouse at 50 mg/kg; assay type: ADME, organism-based; conditions: in vivo
[8] = AUC in CD1 mouse at 50 mg/kg, po; assay type: ADME, organism-based; parameters: dose 50 mg/kg, route oral; conditions: plasma
[9] = Oral AUC in Sprague-Dawley rat at 30 mg/kg, po; assay type: ADME, organism-based; parameters: dose 30 mg/kg, route oral; conditions: in vivo
[10] = Oral bioavailability in cynomolgus monkey at 10 mg/kg; assay type: ADME, organism-based, Macaca fascicularis; conditions: in vivo
[11] = Oral bioavailability in Sprague-Dawley rat at 30 mg/kg; assay type: ADME, organism-based; conditions: in vivo
[12] = Oral AUC in Beagle dog at 10 mg/kg, po; assay type: ADME, organism-based, Canis lupus familiaris; parameters: dose 10 mg/kg, route oral; conditions: in vivo
[13] = Oral bioavailability in Beagle dog at 10 mg/kg; assay type: ADME, organism-based, Canis lupus familiaris; conditions: beagle, in vivo

| SMILES | IC50 [1] [µM] | AUC(0-t) at 6 h [2] [nM·h] | IC50 [3] [µM] | IC50 [4] [µM] | clearance [5] [L/h/kg] | AUC [6] [nM·h] | bioavailability [7] [%] | AUC [8] [nM·h] | AUC [9] [nM·h] | bioavailability [10] [%] | bioavailability [11] [%] | AUC [12] [nM·h] | bioavailability [13] [%] |
| --- | --- | --- | --- | --- | --- | --- | --- | --- | --- | --- | --- | --- | --- |
| Cc1cn2c(-c3cn[nH]c3)cnc2c(Nc2cc(CN(CC(F)F)C(C)(C)CO)ns2)n1.Cl | ≤ 0.004 | 280 | ≤ 0.013 | 0.306 |  |  |  |  |  |  |  |  |  |
| Cc1cn2c(-c3cn[nH]c3)cnc2c(Nc2cc(CN(CC(F)(F)F)C(C)(C)CO)ns2)n1.Cl | ≤ 0.004 | 860 | ≤ 0.013 | 0.198 |  |  |  |  |  |  |  |  |  |
| Cc1cn2c(-c3cn[nH]c3)cnc2c(Nc2cc(CN3CCCCC3)ns2)n1.Cl | ≤ 0.004 | 210 | ≤ 0.013 | 0.045 | 4.8 |  |  |  |  |  |  |  |  |
| Cc1cn2c(-c3cn[nH]c3)cnc2c(Nc2cc(CN3CCC(F)CC3)ns2)n1.Cl | ≤ 0.004 | 2200 | ≤ 0.013 | 0.086 |  | 400 | 10 | 1200 | 8000 | 3 | 21 | 6100 | 38 |
| Cc1cn2c(-c3cn[nH]c3)cnc2c(Nc2cc(CN3CCC(F)(F)CC3)ns2)n1.Cl | ≤ 0.004 | 950 | ≤ 0.013 | 0.074 |  |  |  |  |  |  |  |  |  |
| Cc1cn2c(-c3cn[nH]c3)cnc2c(Nc2cc(CN3CCCC(F)C3)ns2)n1.Cl (stereo not given) | ≤ 0.004 | 1210 | ≤ 0.013 | 0.193 |  |  |  |  |  |  |  |  |  |
| Cc1cn2c(-c3cn[nH]c3)cnc2c(Nc2cc(CN3CCCC(F)(F)C3)ns2)n1.Cl | ≤ 0.004 | 1560 | ≤ 0.013 | 0.079 |  |  |  |  |  |  |  |  |  |
| Cc1cn2c(-c3cn[nH]c3)cnc2c(Nc2cc(CN3CCC(C(F)(F)F)CC3)ns2)n1.Cl | ≤ 0.004 | 1340 | ≤ 0.013 | 0.218 |  |  |  |  |  |  |  |  |  |
| Cc1cn2c(-c3cn[nH]c3)cnc2c(Nc2cc(CN3CCCC3)ns2)n1 | ≤ 0.004 |  | ≤ 0.013 | 0.088 |  |  |  |  |  |  |  |  |  |
| Cc1cn2c(-c3cn[nH]c3)cnc2c(Nc2cc(CN3CC[C@H](F)C3)ns2)n1.Cl | ≤ 0.004 | 760 | ≤ 0.013 | 0.093 |  |  |  |  |  |  |  |  |  |
| Cc1cn2c(-c3cn[nH]c3)cnc2c(Nc2cc(CN3CC[C@@H](F)C3)ns2)n1.Cl | ≤ 0.004 | 740 | ≤ 0.013 | 0.082 |  |  |  |  |  |  |  |  |  |
| Cc1cn2c(-c3cn[nH]c3)cnc2c(Nc2cc(CN3CC(F)(F)C(F)(F)C3)ns2)n1.Cl | ≤ 0.004 | 110 | ≤ 0.013 | 0.05 |  |  |  |  |  |  |  |  |  |
| Cc1cn2c(-c3cn[nH]c3)cnc2c(Nc2cc(CN3CC(F)C3)ns2)n1.O=C(O)C(F)(F)F | ≤ 0.004 | 180 | ≤ 0.013 | 0.191 |  |  |  |  |  |  |  |  |  |
| Cc1cn2c(-c3cn[nH]c3)cnc2c(Nc2cc(CN3CC(F)(F)C3)ns2)n1.O=C(O)C(F)(F)F | ≤ 0.004 | 12100 | ≤ 0.013 | 0.076 |  | 100 |  | 7100 | 7100 |  | 12 | 3800 |  |
| Cc1cn2c(-c3cn[nH]c3)cnc2c(Nc2cc(CNCCC(F)(F)F)ns2)n1.Cl | ≤ 0.004 | 10900 | ≤ 0.013 | 0.063 | 0.72 | 30 |  | 11100 | 20500 |  | 22 | 300 |  |
| Cc1cn2c(-c3cn[nH]c3)cnc2c(Nc2cc(CNCC(F)(F)C(F)(F)F)ns2)n1.Cl | ≤ 0.004 | 3420 | ≤ 0.013 | 0.051 |  |  |  |  |  |  |  |  |  |
| Cl.[2H]C([2H])(c1cc(Nc2nc(C)cn3c(-c4cn[nH]c4)cnc23)sn1)N1CCCCC1 |  |  |  |  | 2.1 |  |  |  |  |  |  |  |  |
| Cl.[2H]C([2H])(NCCC(F)(F)F)c1cc(Nc2nc(C)cn3c(-c4cn[nH]c4)cnc23)sn1 |  |  |  |  | 0.306 |  |  |  |  |  |  |  |  |
